# Experimental data reported in patent publication US20250145715A1, “B7-H3 TARGETING FUSION PROTEINS AND METHODS OF USE THEREOF” (GT Biopharma, Inc., priority 2021, published 2025).
# Entries after “also recorded” stand apart in the source; their conditions may differ.
# Tests used:
# Type in all cases: cell-based, human
# prostate cancer cells = assay: Cell index over time, killing of prostate cancer cells
# Description: FIG. 21 is a graph illustrating cell index over time.
# T cells (CD56−CD3+) = assay: T cell proliferation in PBMCs, CellTrace Violet dilution; conditions: 7 days
# Method: FIGS. 2A-2H illustrates that cam1615B7-H3 TriKE induces potent, and specific, natural killer (NK) cell proliferation. Peripheral blood mononuclear cells (PBMCs) were CellTrace Violet labeled and incubated for seven days at 5 nM equimolar concentrations of rhIL-15 or cam1615B7-H3 TriKE. On day 7, the cells were harvested and stained for flow cytometric evaluation. […] FIG. 2B is a graph illustrating pooled data showing the overall proportion of NK cells that proliferated. FIG. 2C is a graph illustrating pooled data showing the proportion of NK cells that highly proliferated (measured as proliferation beyond three divisions). FIG. 2D is a graph illustrating pooled data showing NK cell counts in the cultures (N=9). FIG. 2E is a representative histogram showing T cell (CD56− CD3+) proliferation. FIG. 2F is a graph illustrating pooled data showing the overall proportion of T cells proliferated. FIG. 2G is a graph illustrating pooled data showing the proportion of T cells highly proliferated. FIG. 2H is a graph illustrating pooled data showing T cell counts in the cultures (N=9). * p<0.05, ** p<0.01, *** p<0.001.
# The wild-type IL-15 moiety in the cam1615B7-H3 TriKE was designed to induce targeted delivery of a proliferative signal to NK cells. To test this, proliferation assays evaluating dilution of a CellTrace dye over a 7-day period were carried out on PBMCs treated with no treatment (NT), monomeric rhIL-15 (IL15), or the TriKE (cam1615B7-H3). At the end of the seven days, cells were harvested and proliferation was evaluated by gating on CD56+CD3− cells. […] Since IL-15 acts on both NK cells and T cells, specificity was evaluated next by gating on T cells (CD56-CD3+).
# To measure the ability of the TriKE to specifically induce NK cell expansion via the IL-15 moiety, PBMCs from healthy donors were labeled with CellTrace Violet Proliferation Dye (Invitrogen, Carlsbad, CA, USA) according to kit specifications. After staining, cells were cultured with TriKEs at noted concentrations, or equimolar concentrations of controls, and incubated in a humidified atmosphere containing 5% CO2 at 37° C. for seven days. Cells were harvested, stained for viability with Live/Dead reagent (Invitrogen, Carlsbad, CA, USA) and surface stained for anti-CD56 PE/Cy7 (Biolegend, San Diego, CA, USA) and anti-CD3 PE-CF594 (BD Biosciences, Franklin Lakes, NJ, USA) to gate on the viable CD56+ CD3− NK cell population or the CD56-CD3+ T cell population. Data analysis was performed using FlowJo software (FlowJo LCC, version 7.6.5, Ashland, OR, USA).
# [1] = test system: OVCAR3 ovarian cancer cells; assay: NK cell CD107a / IFNγ flow cytometry against OVCAR3; conditions: 30 nM, E:T 2:1, 4 hrs; vs no treatment and rhIL-15 alone
# Method: Healthy donor or ovarian cancer PBMC cells were incubated with ovarian tumor targets at 2:1 E:T ratio for 4 hrs with 30 nM TriKE or control condition. FIG. 30A is a graph illustrating pooled proportion of NK cells from healthy donors expressing CD107a+ (degranulation) against OVCAR8 targets (N=8). FIG. 30B is a graph illustrating pooled proportion of NK cells from healthy donors expressing IFNγ cytokine production against OVCAR8 targets (N=8). FIG. 30C is a graph illustrating pooled proportion of NK cells from healthy donors expressing CD107a+ (degranulation) against OVCAR3 targets (N=4). […] FIG. 30I is a graph illustrating that tumor killing was evaluated using IncuCyte imaging assay. […] The percentage of Live (Nuclight Red+Caspase 3/7−) tumor cells was quantified over a 48-h period and normalized to tumor alone. Readings were obtained every 15 min (representative of four separate experiments). * p<0.05, ** p<0.01, *** p<0.001, and **** p<0.0001.
# ADCC was measured in a flow cytometry assay by evaluating degranulation via CD107a (lysosomal-associated membrane protein LAMP-1) and intracellular IFNγ production. […] Samples were washed and evaluated in an LSRII flow cytometer (BD Biosciences, San Jose, CA, USA).
# The ability of cam1615B7-H3 TriKE to mediate NK cell activity against ovarian cancer cells was evaluated. […]
Substance,time to killing of prostate cancer cells after initiation of treatment (prostate cancer cells),"overall T cell proliferation (T cells (CD56−CD3+); 5 nM equimolar, listed as cam1615B7-H3 TriKE)","T cell numbers in culture (T cells (CD56−CD3+); 5 nM, vs untreated)","T cells robustly proliferating (past three divisions) (T cells (CD56−CD3+); 5 nM, vs untreated)",NK cell degranulation against OVCAR3 [1],NK cell intracellular IFNγ production against OVCAR3 [1]
B7-H3 TriKE: camelid nanobodies targeting CD16 and B7-H3 joined by IL-15 and two linkers; sequence table equates the name with cam1615B7-H3,within a couple of hours,,,,,
"cam1615B7-H3: second-generation TriKE: humanized camelid anti-CD16 VHH, human wild-type IL-15, anti-B7-H3 mAb 376.96 scFv; SEQ ID NO:1",,Minimal T cell proliferation; also recorded: some induction of overall T cell proliferation,did not differ between the untreated and TriKE-treated groups,significantly less proliferation than the untreated group,robust,robust
